In patent publication US7119207B2, “Benzoamide piperidine containing compounds and related compounds” (Pfizer INC, priority 2000, dated 2006):
Structures can show the parent of a compound that is named as a salt.

With `COc1cc2c(cc1CNC1CCCNC1c1ccccc1)NC(=O)CC2` (stereo not drawn) (as salt: HCl) [Example 1, 6-Methoxy-7-[(2-phenyl-piperidin-3-ylamino)-methyl]-3,4-dihydro-1H-quinolin-2-one] the melting point was 233 to 235 °C. Compound `CCN1C(=O)CCc2cc(OC)c(CNC3CCCNC3c3ccccc3)cc21` (stereo not drawn) (as salt: hydrochloride) [Example 2, 1-Ethyl-6-methoxy-7-[(2-phenyl-piperidin-3-ylamino)-methyl]-3,4-dihydro-1H-quinolin-2-one] has a melting point of 253 to 255 °C. In the case of `COc1cc2c(cc1CNC1CCCNC1c1ccccc1)N(S(C)(=O)=O)C(=O)CC2` (stereo not drawn) (as salt: hydrochloride) [Example 3, 1-Methanesulfonyl-6-methoxy-7-[(2-phenyl-piperidin-3-ylamino)-methyl]-3,4-dihydro-1H-quinolin-2-one], the melting point is reported as 237 to 241 °C. For `COc1cc2c(cc1CNC1CCCNC1c1ccccc1)N(C)C(=O)CC2(C)C` (stereo not drawn) (as salt: hydrochloride) [Example 4, 6-Methoxy-1,4,4-trimethyl-7-[(2-phenyl-piperidin-3-ylamino)-methyl]-3,4-dihydro-1H-quinolin-2-one], the melting point was > 280 °C. For `COc1cc2c(c(F)c1CNC1CCCNC1c1ccccc1)N(C)C(=O)CC2(C)C` (stereo not drawn) (as salt: hydrochloride) [Example 5, 8-Fluoro-6-methoxy-1,4,4-trimethyl-7-[(2-phenyl-piperidin-3-ylamino)-methyl]-3,4-dihydro-1H-quinolin-2-one], the melting point was > 270 °C. With `COc1cc2c(cc1CN[C@H]1CCCN(C(=O)C(F)(F)F)[C@H]1c1ccccc1)N(C)C(=O)CC2` (as salt: hydrochloride) [Example 10, 6-Methoxy-1-methyl-7-[(2S,3S)-(2-phenyl-1-trifluoroacetyl-piperidin-3-ylamino)-methyl]-3,4-dihydro-1H-quinolin-2-one] the melting point was 222 to 224 °C (dec.). With `COc1cc2c(cc1CN[C@H]1CCCN(C)[C@H]1c1ccccc1)C(C)(C)C(=O)N2C` (as salt: hydrochloride) [Example 14, 5-[{(2S,3S)-1-Methyl-2-phenyl-piperidin-3-ylamino}-methyl]-6-methoxy-1,3,3-trimethyl-1,3-dihydro-indol-2-one] the melting point was > 250 °C (dec.). With `COc1cc2c(cc1CN[C@H]1CCCN(Cc3n[nH]c(=O)[nH]3)[C@H]1c1ccccc1)C(C)(C)C(=O)N2C` [Example 18, 6-Methoxy-1,3,3-trimethyl-5-{[(2S,3S)-1-(5-oxo-4,5-dihydro-1H-[1,2,4]triazol-3-ylmethyl)-2-phenyl-piperidin-3-ylamino]-methyl}-1,3-dihydro-indol-2-one] the melting point was > 250 °C (dec.). In the case of `CCC1CCC(NCc2cc3c(cc2OC)C2CC2C(=O)N3C)C(c2ccccc2)N1` (stereo not drawn) [Example 85, 5-[(6-Ethyl-2-phenyl-piperidin-3-ylamino)-methyl]-6-methoxy-3-methyl-1,1a,3,7b-tetrahydro-3-aza-cyclopropa[a]naphthalen-2-one], the melting point is reported as 231 to 234 °C (dec.).
